Entries after “also recorded” stand apart in the source; their conditions may differ.
Assays:
[1] = system: human breast cancer cell line (MDA MB 231); test: MTT cytotoxicity assay, breast cancer cell line; assay type: cell-based; conditions: Homo sapiens, MDA-MB-231, read-out: EC50/μM Breast MDA MB231
Method: (§1) The compounds include those whose preparations are described above and compounds made by preparative methods corresponding to the methods described above.
(§2) Compounds were diluted over a range of concentrations and added to cells over 1 to 3 days. The cytotoxity was determined using a MTT assay at the end of each experiment.

[2] = system: human prostate cancer cell line (PC-3); test: MTT cytotoxicity assay, prostate cancer cell line; assay type: cell-based; conditions: Homo sapiens, read-out: EC50/μM Prostate PC-3
Method: as §1, §2

[3] = in vivo, 13 day
Method: (§3) Mice were dosed daily at a range of concentrations (0.01-10 μM) and tumour volume assessed versus control.
(§4) Kaplan-Meier statistics were computed regarding incident-free survival.

prostrate PC3 xenograft = test: Mouse xenograft of human cancer, prostate tumour volume; assay type: in vivo; conditions: daily dosing, CPF31 at 5 and 10 μM (3 and 6 μg/ml), gemcitabine at highest non-toxic concentration
Method: as §3

colon HT115 xenograft = test: Mouse xenograft of human cancer, colon tumour volume; assay type: in vivo; conditions: for reducing colon tumour volume relative to control: daily dosing, CPF31 at 5 and 10 μM (3 and 6 μg/ml), gemcitabine at highest non-toxic concentration
Method: as §3

[4] = system: human colon cancer cell line (HT115); test: MTT cytotoxicity assay, colon cancer cell line; assay type: cell-based; conditions: for EC50: Homo sapiens, HT115, read-out: EC50/μM Colon HT115, MTT assay, compounds added to cells over 1 to 3 days; for concentration found to be active in vitro, colon cell line: same colon cell line (HT115)
Method: as §1, §2

[5] = Toxicity in mouse xenograft model (body mass loss, incident-free survival)
Method: as §3, §4

SMILES	EC50 [1] [µM]	EC50 [2] [µM]	toxic concentration in mouse xenograft (FIG. 1) [3]	reducing prostate tumour volume relative to control (prostrate PC3 xenograft)	reducing colon tumour volume relative to control (colon HT115 xenograft)	EC50 [4] [µM]	concentration found to be active in vitro, colon cell line [4] [µM]	activity in reducing colon tumour volume in vivo at 5 μM (FIG. 4) (colon HT115 xenograft; 5 μM, day 24, versus Gemzar)	animals showing serious toxicity (10% body mass loss), day 10 ([5]; 5 and 10 μM groups combined, day 10) [animals]	animals showing serious toxicity (10% body mass loss), day 11, collectively ([5]; 5 and 10 μM groups combined, day 11) [animals]	animals showing serious toxicity (10% body mass loss), day 13 ([5]; 5 and 10 μM groups combined, day 13) [animals]	toxicity compared with gemcitabine (Gemzar, GMZ) ([5]; mouse xenograft, weight loss based, Kaplan-Meier / Cox analysis, listed as CPF31)
Nc1ccn([C@@H]2O[C@H](CO)[C@@H](O)C2(F)F)c(=O)n1 [Example G, gemcitabine, reference compound]	2.8	3.12	above 1 μM	not effective	not effective	606	600					
C[C@H](NP(=O)(OC[C@H]1O[C@@H](n2ccc(N)nc2=O)C(F)(F)C1O)Oc1ccccc1)C(=O)OCc1ccccc1 (stereo partly drawn) [Example 31, Gemcitabine-[phenyl-(benzoxy-L-alaninyl)]-phosphate]	42.6	0.22		significantly effective	significantly effective	5.7	5	greater activity	3	1	1	significantly less toxic; also recorded: substantially lower toxicity; also recorded: far less toxic

From USRE47589E1, “Phosphoramidate compounds and methods of use” (NuCana plc, priority 2003, dated 2019)
